Test results: patent US8242151B2, “Tricyclic compounds” (Kyowa Hakko Kirin Co., Ltd., priority 2007, dated 2012)

Columns and labels:
[1] = molecular target: T1, GAL4-PPARγ chimeric nuclear receptor (human PPARγ ligand binding region) (Homo sapiens, UniProt P37231); assay: Transactivation assay of PPARγ by transient gene transfer (GAL4-PPARγ luciferase reporter); assay type: cell-based; details: HEK293EBNA cells, 24 hr; concentration showing 50% of efficacy; activity relative to pioglitazone 10 μmol/L = 100%
T1 construct: expressed in transfected cells; host or cells: HEK293EBNA cells
T1 sequence (P37231 174-475 isoform P37231-2): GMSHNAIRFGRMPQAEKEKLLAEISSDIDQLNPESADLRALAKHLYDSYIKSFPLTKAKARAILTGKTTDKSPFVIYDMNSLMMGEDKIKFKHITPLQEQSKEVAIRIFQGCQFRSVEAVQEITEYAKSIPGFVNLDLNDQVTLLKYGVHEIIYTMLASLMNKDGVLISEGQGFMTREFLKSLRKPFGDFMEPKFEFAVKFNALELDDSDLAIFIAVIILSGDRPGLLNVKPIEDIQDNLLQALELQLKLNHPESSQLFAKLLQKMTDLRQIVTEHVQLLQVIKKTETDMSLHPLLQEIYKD
Description: The agonist activity of compound (I) to PPARγ was determined by a transactivation assay method using a chimeric nuclear receptor of a DNA binding region of a yeast transcription factor GAL4 and a PPARγ ligand binding region. Specifically, the PPARγ agonist activity of compound (I) was evaluated by the following method based on the method of Lehmann et al. (J Biol. Chem., 1995, vol. 270, page 12953).
HEK293EBNA cells cultured in Dulbecco's Modified Eagle medium (Invitrogen) containing 10 v/v % fetal calf serum (Invitrogen) were used. 30 mL of the above-mentioned cells (density: 1×10^5 cells/mL) were inoculated in a […] culture dish (Iwaki Glass), and cultured overnight. Using SuperFect Transfection Reagent (QIAGEN), a plasmid expressing a GAL4-PPARγ chimeric nuclear receptor fusing 174-475 amino acids, which are human PPARγ ligand binding region, and 1-147 amino acids, which are GAL4 DNA binding region, and a reporter plasmid expressing a GAL4 responsive luciferase were transiently introduced into the cells at a proportion of 4:1. After 5 hr from gene introduction, the cells were detached from the culture dish, and the detached cells (density: 2×10^4 cells/mL) were inoculated by 100 μL in each well of a 96 well white plate (SUMITOMO BAKELITE), and cultured overnight. The medium was removed, compound (I) diluted in various concentrations with serum-free Dulbecco's Modified Eagle medium was added by 100 μL, and the mixture was reacted under a 5% carbon dioxide gas stream (5% CO2) at 37° C. for 24 hr. On the other hand, as a positive control, 10 μmol/L of pioglitazone (100 μL) was added, and the mixture was reacted under a 5% carbon dioxide gas stream (5% CO2) at 37° C. for 24 hr. As a substrate of luciferase, 100 μL of Steady-Glo (Promega) was added to each well and the mixture was thoroughly stirred. Immediately thereafter, the chemical luminescence due to luciferase was measured using TopCount NTX (Packard).
The agonist activity (activity rate (%)) of compound (I) to PPARγ was calculated according to the following formula, as a relative activity when the agonist activity on addition of pioglitazone (10 μmol/L) was 100%.

[2] = system: spontaneously hypertensive rats (SHR); assay: Antihypertensive action by telemetry method; assay type: in vivo, rat; details: oral once a day for 4 days, 24 hr averages
Description: A telemetry transmitter was indwelled in the abdominal artery of spontaneously hypertensive rats (SHR), and the blood pressure and heart rate were monitored. The rats were acclimated and reared for 4 weeks or more, and only the rats with hypertension were used for the test. Before drug administration, the rats were grouped such that the blood pressure and heart rate of each rat would be of the same levels between the groups. A solvent (0.5% methylcellulose solution) and a test compound were repeatedly administered orally once a day for 4 days. The average systolic blood pressure for 24 hr, average diastolic blood pressure for 24 hr and average heart rate for 24 hr were calculated on each administration day.

[3] = system: spontaneously hypertensive rats (SHR); assay: Antihypertensive action by tail cuff method; assay type: in vivo, rat; details: oral once a day for 7 days, about 4 to 9 hr after final administration
Description: 18- to 22-week-old spontaneously hypertensive rats (SHR) were used.
Before drug administration, the body weight, blood pressure and heart rate of each rat were measured, and the rats were grouped such that these values are almost the same between groups. A solvent (0.5% methylcellulose solution) and a test compound were repeatedly administered orally once a day for 7 days. At about 4 to 9 hr after the final administration, systolic blood pressure and heart rate were non-invasively measured according to the following.
The rats were placed in a cylindrical restrainer, heated to 37° C., and blood pressure and heart rate were measured under resting state using a Tail Cuff Method. For the measurement, a non-invasive blood pressure measurement apparatus (PS-600, Riken Kaihatsu, Tokyo) was used. The blood pressure and heart rate of each rat was measured 5 times, and the average was taken as the value of each rat.

SMILES	EC50 [1] [nM]	antihypertensive action (blood pressure, telemetry) [2]	antihypertensive action (systolic blood pressure, tail cuff) [3]
CCc1nc2c(C)ccnc2n1Cc1ccc2c(c1)CCc1ccccc1/C2=C(/C)c1noc(=O)[nH]1 [Compound 42, (E)-2-(2-ethyl-7-methyl-3H-imidazo[4,5-b]pyridin-3-yl)methyl-5-[1-(5-oxo-4,5-dihydro-1,2,4-oxadiazol-3-yl)ethylidene]-10,11-dihydro-5H-dibenzo[a,d]cycloheptene]	1020	antihypertensive action	antihypertensive action
CCc1nc2c(Cl)cc(C)nc2n1Cc1ccc2c(c1)CCc1ccccc1/C2=C(/C)c1noc(=O)[nH]1 [Compound 44, (E)-2-(7-chloro-2-ethyl-5-methyl-3H-imidazo[4,5-b]pyridin-3-yl)methyl-5-[1-(5-oxo-4,5-dihydro-1,2,4-oxadiazol-3-yl)ethylidene]-10,11-dihydro-5H-dibenzo[a,d]cycloheptene]	784	antihypertensive action	antihypertensive action
C/C(=C1/c2ccccc2CCc2cc(Cn3c(C4CC4)nc4c(Cl)ccnc43)ccc21)c1noc(=O)[nH]1 [Compound 95, (E)-2-(7-chloro-2-cyclopropyl-3H-imidazo[4,5-b]pyridin-3-yl)methyl-5-[1-(5-oxo-4,5-dihydro-1,2,4-oxadiazol-3-yl)ethylidene]-10,11-dihydro-5H-dibenzo[a,d]cycloheptene]	527	antihypertensive action	antihypertensive action
CCc1nc2c(C)cc(C)nc2n1Cc1ccc2c(c1)CCc1ccccc1/C2=C\c1noc(=O)[nH]1 [Compound 29, (E)-2-(2-ethyl-5,7-dimethyl-3H-imidazo[4,5-b]pyridin-3-yl)methyl-5-(5-oxo-4,5-dihydro-1,2,4-oxadiazol-3-yl)methylene-10,11-dihydro-5H-dibenzo[a,d]cycloheptene]	326	antihypertensive action	antihypertensive action
